Experimental data from ChEMBL document CHEMBL3046912, “Effectiveness of 1,3-dichloropropene as an alternative to methyl bromide in rotations of tomato (Solanum lycopersicum) and cucumber (Cucumis sativus) in China” (2012).
Activity calls are given as the source filed them. The rule behind the calls is not given here.

Legend:
Solanum lycopersicum [1] = test: Increase in plant height of Solanum lycopersicum (tomato) exposed to 90 L/ha compound fumigation treatment measured 30 days after compound treatment (reference value: 28.4 cm); assay type: functional
Solanum lycopersicum [2] = test: Increase in plant height of Solanum lycopersicum (tomato) exposed to 180 L/ha compound fumigation treatment measured 30 days after compound treatment (reference value: 28.4 cm); assay type: functional
Cucumis sativus [3] = test: Increase in plant height of Cucumis sativus (cucumber) exposed to 180 L/ha compound fumigation treatment measured 30 days after compound treatment (reference value: 85.6 cm); assay type: functional
Cucumis sativus [4] = test: Increase in plant height of Cucumis sativus (cucumber) exposed to 120 L/ha compound fumigation treatment measured 30 days after compound treatment (reference value: 85.6 cm); assay type: functional
Arenaria serpyllifolia [5] = test: Herbicidal activity against Arenaria serpyllifolia in cucumber plants fields exposed to 90 L/ha compound fumigation treatment assessed as hand weeding time per plot (reference value: 258.3 hr/ha); assay type: functional
Digitaria sanguinalis [6] = test: Herbicidal activity against Digitaria sanguinalis (hairy crabgrass) in cucumber plants fields exposed to 90 L/ha compound fumigation treatment assessed as hand weeding time per plot (reference value: 258.3 hr/ha); assay type: functional
Arenaria serpyllifolia [7] = test: Herbicidal activity against Arenaria serpyllifolia in cucumber plants fields exposed to 120 L/ha compound fumigation treatment assessed as hand weeding time per plot (reference value: 258.3 hr/ha); assay type: functional
Digitaria sanguinalis [8] = test: Herbicidal activity against Digitaria sanguinalis (hairy crabgrass) in cucumber plants fields exposed to 120 L/ha compound fumigation treatment assessed as hand weeding time per plot (reference value: 258.3 hr/ha); assay type: functional
Arenaria serpyllifolia [9] = test: Herbicidal activity against Arenaria serpyllifolia in cucumber plants fields exposed to 180 L/ha compound fumigation treatment assessed as hand weeding time per plot (reference value: 258.3 hr/ha); assay type: functional
Meloidogyne incognita [10] = test: Nematicidal activity against Meloidogyne incognita (root-knot nematode) in cucumber growing fields exposed to 90 L/ha compound fumigation treatment assessed as root galling index measured 20 days after compound treatment (reference value: 8.72 root galling index); assay type: functional
Meloidogyne incognita [11] = test: Nematicidal activity against Meloidogyne incognita (root-knot nematode) in cucumber growing fields exposed to 120 L/ha compound fumigation treatment assessed as root galling index measured 20 days after compound treatment (reference value: 8.72 root galling index); assay type: functional
Meloidogyne incognita [12] = test: Nematicidal activity against Meloidogyne incognita (root-knot nematode) in cucumber growing fields exposed to 180 L/ha compound fumigation treatment assessed as root galling index measured 20 days after compound treatment (reference value: 8.72 root galling index); assay type: functional
Solanum lycopersicum [13] = test: Increase in crop yield in Cucumis sativus (cucumber) plants exposed to 180 L/ha compound fumigation treatment assessed as marketable yield fruit yield (reference value: 65.3 ton/ha); assay type: functional
Solanum lycopersicum [14] = test: Increase in crop yield in Solanum lycopersicum (tomato) plants exposed to 90 L/ha compound fumigation treatment assessed as marketable yield fruit yield (reference value: 51.3 ton/ha); assay type: functional
Solanum lycopersicum [15] = test: Increase in crop yield in Solanum lycopersicum (tomato) plants exposed to 120 L/ha compound fumigation treatment assessed as marketable yield fruit yield (reference value: 51.3 ton/ha); assay type: functional
Arenaria serpyllifolia [16] = test: Herbicidal activity against Arenaria serpyllifolia in tomato plants fields exposed to 90 L/ha compound fumigation treatment assessed as hand weeding time per plot (reference value: 243.3 hr/ha); assay type: functional
Arenaria serpyllifolia [17] = test: Herbicidal activity against Arenaria serpyllifolia in tomato plants fields exposed to 120 L/ha compound fumigation treatment assessed as hand weeding time per plot (reference value: 243.3 hr/ha); assay type: functional
Digitaria sanguinalis [18] = test: Herbicidal activity against Digitaria sanguinalis (hairy crabgrass) in tomato plants fields exposed to 180 L/ha compound fumigation treatment assessed as hand weeding time per plot (reference value: 243.3 hr/ha); assay type: functional
Phytophthora melonis = test: Fungicidal activity against Phytophthora melonis-induced blight disease in cucumber plants at 120 to 180 L/ha measured 20 to 60 days post compound treatment; assay type: functional, organism-based
Meloidogyne incognita [19] = test: Nematicidal activity against Meloidogyne incognita (root-knot nematode) in tomato growing fields exposed to 120 L/ha compound fumigation treatment assessed as root galling index measured 20 days after compound treatment (reference value: 8.51 root galling index); assay type: functional
Meloidogyne incognita [20] = test: Nematicidal activity against Meloidogyne incognita (root-knot nematode) in tomato growing fields exposed to 180 L/ha compound fumigation treatment assessed as root galling index measured 20 days after compound treatment (reference value: 8.51 root galling index); assay type: functional
Arenaria serpyllifolia [21] = test: Herbicidal activity against Arenaria serpyllifolia in tomato plants fields exposed to 90 L/ha compound fumigation treatment assessed as hand weeding time per plot relative to untreated control; assay type: functional
Digitaria sanguinalis [22] = test: Herbicidal activity against Digitaria sanguinalis (hairy crabgrass) in tomato plants fields exposed to 90 L/ha compound fumigation treatment assessed as hand weeding time per plot relative to untreated control; assay type: functional
Digitaria sanguinalis [23] = test: Herbicidal activity against Digitaria sanguinalis (hairy crabgrass) in tomato plants fields exposed to 120 L/ha compound fumigation treatment assessed as hand weeding time per plot relative to untreated control; assay type: functional
Arenaria serpyllifolia [24] = test: Herbicidal activity against Arenaria serpyllifolia in tomato plants fields exposed to 180 L/ha compound fumigation treatment assessed as hand weeding time per plot relative to untreated control; assay type: functional
Digitaria sanguinalis [25] = test: Herbicidal activity against Digitaria sanguinalis (hairy crabgrass) in tomato plants fields exposed to 180 L/ha compound fumigation treatment assessed as hand weeding time per plot relative to untreated control; assay type: functional
Capsella bursa-pastoris = test: Herbicidal activity against Capsella bursa-pastoris in tomato plants fields exposed to 180 L/ha compound fumigation treatment assessed as hand weeding time per plot relative to untreated control; assay type: functional
Solanum lycopersicum [26] = test: Increase in crop yield in Cucumis sativus (cucumber) plants exposed to 120 L/ha compound fumigation treatment assessed as large fruit yield (reference value: 19.5 ton/ha); assay type: functional
Solanum lycopersicum [27] = test: Increase in crop yield in Cucumis sativus (cucumber) plants exposed to 180 L/ha compound fumigation treatment assessed as large fruit yield (reference value: 19.5 ton/ha); assay type: functional
Arenaria serpyllifolia [28] = test: Herbicidal activity against Arenaria serpyllifolia in cucumber plants fields exposed to 180 L/ha compound fumigation treatment assessed as hand weeding time per plot relative to untreated control; assay type: functional
Solanum lycopersicum [29] = test: Increase in crop yield in Solanum lycopersicum (tomato) plants exposed to 90 L/ha compound fumigation treatment assessed as large fruit yield (reference value: 15.2 ton/ha); assay type: functional
Solanum lycopersicum [30] = test: Increase in crop yield in Cucumis sativus (cucumber) plants exposed to 120 L/ha compound fumigation treatment assessed as extra-large fruit yield (reference value: 7.2 ton/ha); assay type: functional
Solanum lycopersicum [31] = test: Increase in crop yield in Solanum lycopersicum (tomato) plants exposed to 120 L/ha compound fumigation treatment assessed as extra-large fruit yield (reference value: 3.8 ton/ha); assay type: functional
Solanum lycopersicum [32] = test: Increase in crop yield in Solanum lycopersicum (tomato) plants exposed to 90 L/ha compound fumigation treatment assessed as extra-large fruit yield (reference value: 3.8 ton/ha); assay type: functional
Solanum lycopersicum [33] = test: Increase in crop yield in Solanum lycopersicum (tomato) plants exposed to 180 L/ha compound fumigation treatment assessed as extra-large fruit yield (reference value: 3.8 ton/ha); assay type: functional
Digitaria sanguinalis [34] = test: Herbicidal activity against Digitaria sanguinalis (hairy crabgrass) in cucumber plants fields exposed to 120 L/ha compound fumigation treatment assessed as hand weeding time per plot relative to untreated control; assay type: functional

## Cl/C=C/CCl [1,3-DICHLOROPROPENE]
Solanum lycopersicum [1]
  Activity: 32.4 cm
Solanum lycopersicum [2]
  Activity: 45.4 cm
Cucumis sativus [3]
  Activity: 105.6 cm
Cucumis sativus [4]
  Activity: 96.8 cm
Arenaria serpyllifolia [5]
  Time: 90.5 hr/ha
Digitaria sanguinalis [6]
  Time: 90.5 hr/ha
Arenaria serpyllifolia [7]
  Time: 74.4 hr/ha
Digitaria sanguinalis [8]
  Time: 74.4 hr/ha
Arenaria serpyllifolia [9]
  Time: 62.3 hr/ha
Meloidogyne incognita [10]
  Root_galling_index: 4.28
Meloidogyne incognita [11]
  Root_galling_index: 2.92
Meloidogyne incognita [12]
  Root_galling_index: 2.02
Solanum lycopersicum [13]
  Crop_yield: 98.8 tons/ha
Solanum lycopersicum [14]
  Crop_yield: 62.4 tons/ha
Solanum lycopersicum [15]
  Crop_yield: 68.1 tons/ha
Arenaria serpyllifolia [16]
  Time: 85.6 hr/ha
Arenaria serpyllifolia [17]
  Time: 66.4 hr/ha
Digitaria sanguinalis [18]
  Time: 55.6 hr/ha
Phytophthora melonis
  Activity: Active
Meloidogyne incognita [19]
  Root_galling_index: 2.84
Meloidogyne incognita [20]
  Root_galling_index: 2.34
Arenaria serpyllifolia [21]
  Activity: 45%
Digitaria sanguinalis [22]
  Activity: 45%
Digitaria sanguinalis [23]
  Activity: 45%
Arenaria serpyllifolia [24]
  Activity: 45%
Digitaria sanguinalis [25]
  Activity: 45%
Capsella bursa-pastoris
  Activity: 45%
Solanum lycopersicum [26]
  Crop_yield: 27.9 tons/ha
Solanum lycopersicum [27]
  Crop_yield: 31.7 tons/ha
Arenaria serpyllifolia [28]
  Activity: 45%
Solanum lycopersicum [29]
  Crop_yield: 18.9 tons/ha
Solanum lycopersicum [30]
  Crop_yield: 12.1 tons/ha
Solanum lycopersicum [31]
  Crop_yield: 6.4 tons/ha
Solanum lycopersicum [32]
  Crop_yield: 4.8 tons/ha
Solanum lycopersicum [33]
  Crop_yield: 8.4 tons/ha
Digitaria sanguinalis [34]
  Activity: 45%
